Our source for the pest or weed control, plant injury and Corn plant response rating (crop injury, 0 = no effect, 100 = complete kill) values is patent publication US12077503B2, “Substituted cyclic amides and their use as herbicides” (FMC CORPORATION, priority 2015, dated 2024).

Common to all, as to format: in vivo
The test system of one experiment is Kochia (Kochia scoparia). As to the kind of experiment: Test A preemergence. Conditions: Bassia scoparia, pre-emergence, 240 h; for pest or weed control at 125 g/ha: 125 g ai/ha, Preemergence, visual injury rating after approximately 10 d, read-out: Kochia plant response rating (0 to 100 scale, 0 is no effect, 100 is complete control); for pest or weed control at 500 g/ha: 500 g ai/ha, preemergence, visual injury rating about 10 d after treatment, 0 to 100 scale (0 no effect, 100 complete control), read-out: Kochia plant response rating. Put shortly:
(§1)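 Seeded soil received test chemicals as a preemergence directed spray, and seedlings at one to two leaves, 2–10 cm tall, received them postemergence, in a non-phytotoxic, surfactant-containing solvent mixture. Pots were held in a greenhouse for approximately 10 d, then rated for injury from 0, no effect, to 100, complete control.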

The test system of experiment [1] is barnyardgrass (Echinochloa crus-galli). The experiment is described as follows: Test A preemergence. Particulars: Echinochloa crus-galli, pre-emergence, 240 h; for pest or weed control at 125 g/ha: 125 g ai/ha, Preemergence, visual injury rating after approximately 10 d, read-out: Barnyardgrass plant response rating (0 to 100 scale, 0 is no effect, 100 is complete control); for pest or weed control at 500 g/ha: 500 g ai/ha, preemergence, visual injury rating about 10 d after treatment, 0 to 100 scale (0 no effect, 100 complete control), read-out: Barnyardgrass plant response rating. The method, boiled down:
as §1

For experiment [2], the system named is giant foxtail (Setaria faberii). The experiment is described as follows: Test A preemergence. Particulars: Setaria faberi, pre-emergence, 240 h; for pest or weed control at 125 g/ha: 125 g ai/ha, Preemergence, visual injury rating after approximately 10 d, read-out: Foxtail, Giant plant response rating (0 to 100 scale, 0 is no effect, 100 is complete control); for pest or weed control at 500 g/ha: 500 g ai/ha, preemergence, visual injury rating about 10 d after treatment, 0 to 100 scale (0 no effect, 100 complete control), read-out: Foxtail, Giant plant response rating. Put shortly:
as §1

The test system of experiment [3] is pigweed (Amaranthus retroflexus). As to the kind of experiment: Test A preemergence. Conditions: Amaranthus retroflexus, pre-emergence, 240 h; for pest or weed control at 125 g/ha: 125 g ai/ha, Preemergence, visual injury rating after approximately 10 d, read-out: Pigweed plant response rating (0 to 100 scale, 0 is no effect, 100 is complete control); for pest or weed control at 500 g/ha: 500 g ai/ha, preemergence, visual injury rating about 10 d after treatment, 0 to 100 scale (0 no effect, 100 complete control), read-out: Pigweed plant response rating.

In experiment [4] the test system is ragweed (common ragweed, Ambrosia elatior). The experiment is described as follows: Test A preemergence. Particulars: Ambrosia artemisiifolia, pre-emergence, 240 h; for pest or weed control at 125 g/ha: 125 g ai/ha, Preemergence, visual injury rating after approximately 10 d, read-out: Ragweed plant response rating (0 to 100 scale, 0 is no effect, 100 is complete control); for pest or weed control at 500 g/ha: 500 g ai/ha, preemergence, visual injury rating about 10 d after treatment, 0 to 100 scale (0 no effect, 100 complete control), read-out: Ragweed plant response rating. The method, boiled down:
as §1

Experiment [5] has as its system ryegrass, Italian (Italian ryegrass, Lolium multiflorum). The experiment is described as follows: Test A preemergence. Particulars: Lolium multiflorum, pre-emergence, 240 h; for pest or weed control at 125 g/ha: 125 g ai/ha, Preemergence, visual injury rating after approximately 10 d, read-out: Ryegrass, Italian plant response rating (0 to 100 scale, 0 is no effect, 100 is complete control); for pest or weed control at 500 g/ha: 500 g ai/ha, preemergence, visual injury rating about 10 d after treatment, 0 to 100 scale (0 no effect, 100 complete control), read-out: Ryegrass, Italian plant response rating. The method, boiled down:
as §1

In experiment [6] the test system is Galium (catchweed bedstraw, Galium aparine). The experiment is described as follows: Test A postemergence. Conditions: Galium, post-emergence, 240 h, postemergence, approx. 10 d; for pest or weed control at 125 g/ha: 125 g ai/ha, visual injury on 0 to 100 scale (0 no effect, 100 complete control), read-out: Galium plant response rating; for pest or weed control at 500 g/ha: 500 g ai/ha, visual injury, 0 to 100 scale (0 no effect, 100 complete control), read-out: Plant response rating, Galium. The method, boiled down: as §1

Experiment [7] relates to barnyardgrass (Echinochloa crus-galli). The experiment is described as follows: Test A postemergence. Conditions: Echinochloa crus-galli, post-emergence, 240 h; for pest or weed control at 125 g/ha: 125 g ai/ha; for pest or weed control at 500 g/ha: 500 g ai/ha, visual injury, 0 to 100 scale (0 no effect, 100 complete control). The method, boiled down:
as §1

Another experiment concerns corn (Zea mays). As to the kind of experiment: Test A postemergence. Particulars: Zea mays, post-emergence, 240 h; for Corn plant response rating (crop injury, 0 = no effect, 100 = complete kill) at 500 g/ha: 500 g ai/ha, visual injury, 0 to 100 scale (0 no effect, 100 complete control). The method, boiled down:
as §1

Experiment [8] deals with ragweed (common ragweed, Ambrosia elatior). The experiment is described as follows: Test A postemergence. Particulars: Ambrosia artemisiifolia, post-emergence, 240 h, 125 g ai/ha, postemergence; visual injury on 0 to 100 scale (0 no effect, 100 complete control), approx. 10 d; read-out: Ragweed plant response rating. Put shortly:
as §1

For experiment [9], the system named is barnyardgrass (Echinochloa crus-galli). The experiment is described as follows: Test B flooded paddy test. Particulars: Echinochloa crus-galli, 250 g ai/ha, Flood; 0 to 100 scale where 0 is no effect and 100 is complete control; read-out: Barnyardgrass plant response rating. Put shortly:
(§2)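 Greenhouse paddy pots with 2-leaf stage plants received compound by direct addition to floodwater 3 cm deep, kept at that level. Scored visually at 13–15 d versus controls (0 no effect; 100 complete control).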

The test system of experiment [10] is ducksalad (Heteranthera limosa). The experiment is described as follows: Test B flooded paddy test. Conditions: Heteranthera limosa, 250 g ai/ha, Flood; 0 to 100 scale where 0 is no effect and 100 is complete control; read-out: Ducksalad plant response rating. The method, boiled down: as §2
For the next experiment, the system named is rice (Oryra sativa). As to the kind of experiment: Test B flooded paddy test. Particulars: Oryza sativa, 250 g ai/ha, Flood; 0 to 100 scale where 0 is no effect and 100 is complete control; read-out: Rice plant response rating. The method, boiled down:
as §2

The test system of experiment [11] is sedge, umbrella (small-flower umbrella sedge, Cyperus difformis). The experiment is described as follows: Test B flooded paddy test. Conditions: Cyperus difformis, 250 g ai/ha, Flood; 0 to 100 scale where 0 is no effect and 100 is complete control; read-out: Sedge, Umbrella plant response rating. Put shortly:
as §2

The mark [12] stands for this setting: postemergence, approx. 10 d, read-out: Plant response rating, Barnyardgrass.

In the case of `Cc1cc([C@H]2CNC(=O)[C@@H]2C(=O)Nc2ccccc2F)ccc1C(F)(F)F` [Compound 1042], the pest or weed control at 125 g/ha with Kochia (Kochia scoparia) amounted to 20%; in experiment [1], 90%; in experiment [2], 90%; in experiment [3], 30%; in [4], 20%; in experiment [5], 30%. For the same compound, the pest or weed control at 125 g/ha in [6] was determined as 30%; in [7] (postemergence, visual injury on 0 to 100 scale (0 no effect, 100 complete control), approx. 10 d, read-out: Barnyardgrass plant response rating), 80%; in experiment [8], 0%. Moreover, the pest or weed control at 500 g/ha with Kochia (Kochia scoparia) was found to be 70%; in [1] it was 90%; in experiment [2], 90%; in [3] it was 50%; in [4], 40%; in experiment [5], 50%. Besides, the pest or weed control at 500 g/ha in experiment [6] worked out at 50%; in [7] (setting [12]) it was 90%. Besides, the plant injury at 125 g/ha in the experiment with corn (Zea mays) (125 g ai/ha, postemergence, visual injury on 0 to 100 scale (0 no effect, 100 complete control), approx. 10 d, read-out: Corn plant response rating) was determined as 60%. For the same compound, the Corn plant response rating (crop injury, 0 = no effect, 100 = complete kill) at 500 g/ha in the experiment on corn (Zea mays) (postemergence, approx. 10 d) stood at 70%. For the same compound, the pest or weed control at 250 g/ha worked out at 30% in [9], 75% in experiment [10], 0% in the experiment with rice (Oryra sativa) and 0% in experiment [11].
As for `Cc1ccc([C@H]2CN(C)C(=O)[C@@H]2C(=O)Nc2ccccc2F)cc1C` [Compound 1038], the pest or weed control at 125 g/ha with Kochia (Kochia scoparia) was found to be 80%; in experiment [1] it was 100%; in [2] it was 100%; in [3], 20%; in experiment [4], 20%; in [5], 30%. For the same compound, the pest or weed control at 125 g/ha in experiment [6] worked out at 50%; in [7] (Postemergence, visual injury after approximately 10 d, 0 to 100 scale where 0 is no effect and 100 is complete control, read-out: Plant response rating, Barnyardgrass), 90%; in experiment [8], 0%. Also, the pest or weed control at 500 g/ha with Kochia (Kochia scoparia) is 80%; in experiment [1] it was 100%; in experiment [2], 100%; in experiment [3], 30%; in [4], 70%; in experiment [5], 70%. The pest or weed control at 500 g/ha turned out to be 70% in experiment [6] and 90% in [7] (setting [12]). This compound also registered a Corn plant response rating (crop injury, 0 = no effect, 100 = complete kill) at 125 g/ha with corn (Zea mays) (125 g ai/ha, Postemergence, visual injury after approximately 10 d, 0 to 100 scale where 0 is no effect and 100 is complete control) of 60%. In the experiment on corn (Zea mays) (postemergence, approx. 10 d), this compound showed a Corn plant response rating (crop injury, 0 = no effect, 100 = complete kill) at 500 g/ha of 80%. In addition, the pest or weed control at 250 g/ha in experiment [9] was 65%; in [10] it was 100%; in the experiment with rice (Oryra sativa), 0%; in experiment [11] it was 0%.
